Biological target: Cyclin-dependent kinase 1/cyclin B1 (Homo sapiens, UniProt P06493)
Test: Inhibition of Cdk1/cyclin B
Assay type: protein-complex assay

Chain of Cyclin-dependent kinase 1/cyclin B1 (P06493 whole entry): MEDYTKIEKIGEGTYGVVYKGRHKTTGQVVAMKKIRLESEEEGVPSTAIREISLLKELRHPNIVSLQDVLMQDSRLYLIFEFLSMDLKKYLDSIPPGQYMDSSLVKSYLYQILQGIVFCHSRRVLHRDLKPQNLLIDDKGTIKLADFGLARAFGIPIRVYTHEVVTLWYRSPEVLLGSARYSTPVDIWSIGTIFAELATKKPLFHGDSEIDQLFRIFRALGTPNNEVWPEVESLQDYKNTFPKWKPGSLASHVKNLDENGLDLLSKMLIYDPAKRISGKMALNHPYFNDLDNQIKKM
Chain of Cyclin-dependent kinase 1/cyclin B1 (P14635 whole entry, further chain): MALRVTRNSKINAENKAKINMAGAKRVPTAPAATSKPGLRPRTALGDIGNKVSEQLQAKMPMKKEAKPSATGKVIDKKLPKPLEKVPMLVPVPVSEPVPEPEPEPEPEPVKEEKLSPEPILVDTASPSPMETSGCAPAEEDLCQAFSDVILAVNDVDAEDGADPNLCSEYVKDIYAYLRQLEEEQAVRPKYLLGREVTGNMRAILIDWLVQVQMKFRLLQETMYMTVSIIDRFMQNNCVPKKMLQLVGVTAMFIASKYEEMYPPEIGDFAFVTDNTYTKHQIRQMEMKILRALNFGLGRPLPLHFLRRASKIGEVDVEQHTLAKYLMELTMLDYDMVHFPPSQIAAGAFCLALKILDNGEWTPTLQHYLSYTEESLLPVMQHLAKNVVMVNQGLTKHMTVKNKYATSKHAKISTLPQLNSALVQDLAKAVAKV

IC50 | SMILES
> 20 µM | COc1cc(O)c(C(=O)/C=C/c2ccccc2)cc1CN1CCCC1
> 20 µM | COc1cc(O)c(C(=O)/C=C/c2ccccc2)cc1CN1CCOCC1
> 20 µM | COc1cc(O)c(C(=O)/C=C/c2ccccc2)cc1CN1CCN(C)CC1
> 20 µM | COc1cc(O)c(C(=O)/C=C/c2ccccc2)cc1CN(C)C
> 20 µM | COc1cc(O)c(C(=O)/C=C/c2ccccc2)cc1CN1CCCCC1
> 20 µM | COc1ccc(C(=O)/C=C/c2ccccc2)c(O)c1
> 20 µM | COc1cc(O)c(C(=O)/C=C/c2ccccc2)cc1CN1CCSCC1

The next lines start with the molecule.

SMILES | IC50
O=c1c(O)c(-c2ccc(O)c(O)c2)oc2cc(O)cc(O)c12 [QUERCETIN] | > 20 µM
O=c1cc(-c2ccccc2)oc2cc(O)c(O)c(O)c12 [BAICALEIN] | 6.53 µM
COC(=O)[C@H]1O[C@@H](Oc2cc3oc(-c4ccccc4)cc(=O)c3c(O)c2O)[C@H](O)[C@H](O)[C@@H]1O [BAICALIN METHYLATE] | 11.6 µM
CN1CCN(Cc2c(O)c(O)c(O)c3c(=O)cc(-c4ccccc4)oc23)CC1 | 0.27 µM
O=c1cc(-c2ccccc2)oc2c(CN3CCCC3)c(O)c(O)c(O)c12 | 1.22 µM
O=c1c(O)c(-c2ccc(O)c(O)c2)oc2c(CN3CCCCC3)c(O)cc(O)c12 | 18.7 µM
O=c1cc(-c2ccccc2)oc2c(CN3CCOCC3)c(O)c(O)c(O)c12 | 0.28 µM
O=C(O)[C@H]1O[C@@H](Oc2cc3oc(-c4ccccc4)cc(=O)c3c(O)c2O)[C@H](O)[C@@H](O)[C@@H]1O [BAICALIN] | 14.4 µM
CN(C)Cc1c(O)cc(O)c2c(=O)c(O)c(-c3ccc(O)c(O)c3)oc12 | 15.7 µM
O=c1cc(-c2ccccc2)oc2c(CN3CCCCC3)c(O)c(O)c(O)c12 | 1.28 µM
O=c1c(O)c(-c2ccc(O)c(O)c2)oc2c(CN3CCOCC3)c(O)cc(O)c12 | > 20 µM
CN1CCN(Cc2c(O)cc(O)c3c(=O)c(O)c(-c4ccc(O)c(O)c4)oc23)CC1 | > 20 µM
CN(C)Cc1c(O)c(O)c(O)c2c(=O)cc(-c3ccccc3)oc12 | 1.05 µM
O=c1cc(-c2ccccc2)oc2c(CN3CCSCC3)c(O)c(O)c(O)c12 | 0.38 µM

Reference: ChEMBL document CHEMBL1155902, “Nitrogen-containing flavonoid analogues as CDK1/cyclin B inhibitors: synthesis, SAR analysis, and biological activity” (Bioorg Med Chem, 2008)
